System: P. falciparum Dd2
Assay: Activity against the Dd2 strain of P. falciparum (SYBR Green I, 72 h)
Type: cell-based
Details: Plasmodium falciparum, DD2, 72 h, P. falciparum Dd2, 72 h incubation
Experimental: The Dd2 strain of P. falciparum was cultured in complete medium (RPMI with L-glutamine, 4.3% heat-inactivated O-positive human serum, 2.08 mg/ml albumax, 0.013 mg/ml hypoxanthine, 1.17 mg/ml glucose, 0.18% NaHCO3, 0.031 M Hepes, 2.60 mM NaOH, and 0.043 mg/ml gentamicin) until the parasitemia reached 3-8%. Parasitemia was determined by checking at least 500 red blood cells from a Giemsa-stained blood smear. The Dd2 cultures along with tested O-positive red blood cells were centrifuged at room temperature at 2,000 rpm for 5 minutes using an Eppendorf centrifuge 5810R with an A-4-81 rotor. The medium was aspirated off. For the compound screening, a parasite dilution at a 1% parasitemia and 1.0% hematocrit was created with screening medium (RPMI with L-glutamine, 4.16 mg/ml albumax II, 0.013 mg/ml hypoxanthine, 1.73 mg/ml glucose, 0.18% NaHCO3, 0.031 M Hepes, 2.60 mM NaOH, and 0.043 mg/ml gentamicin). The suspension was gassed with 93% nitrogen, 4% carbon dioxide, and 3% oxygen and placed at 37° C. until needed. Using a liquid dispenser, 20 μl of screening medium was dispensed into 384-well, black, clear-bottom plates. With a PinTool, 100 nl of compounds dissolved in DMSO was transferred into the assay plates along with control compound (mefloquine). Next, 30 μl of the parasite suspension in screening medium was then dispensed into the assay plates such that the final parasitemia was 1% and the final hematocrit was 1.0%. Final concentration of DMSO was 0.125%. Mefloquine at a final concentration of 20 μM and DMSO at a final concentration of 0.125% were used within the assay plates to serve as background and baseline controls, respectively. The assay plates were transferred to incubators (93% nitrogen, 4% carbon dioxide, and 3% oxygen during the 72 h incubation at 37° C.). Ten microliters of detection reagent consisting of 10×SYBR Green I (Invitrogen; supplied in 10,000× concentration) in lysis buffer (20 mM Tris-HCl, 5 mM EDTA, 0.16% Saponin wt/vol, 1.6% Triton X vol/vol) was dispensed into the assay plates. For optimal staining, the assay plates were left at room temperature for 24 h in the dark. The assay plates were read by using an Envision (PerkinElmer) reader, with 505 dichroic mirrors with 485-nm excitation and 530-nm emission settings, and the plate reads were from the bottom.
By following the above-described protocol, the 50% effective concentration (EC50) for compounds 1-95 was measured against P. falciparum Dd2 and the results are shown in Table 2: […]

Compound	EC50 [µM]
Cc1ccc(-c2ccc([C@@H]3[C@H](CO)N4CCCCN(S(=O)(=O)c5cccc(C)c5)C[C@@H]34)cc2)cc1 [Compound 26, ((8R,9S,10R)-9-(4′-methyl-[1,1′-biphenyl]-4-yl)-6-(m-tolylsulfonyl)-1,6-diazabicyclo[6.2.0]decan-10-yl)methanol]	0.955
O=C(Nc1cccc(F)c1)N1CCCCN2[C@@H](CO)[C@H](c3ccc(C#Cc4cccnc4)cc3)[C@@H]2C1 [Compound 28, (8R,9R,10R)-N-(3-fluorophenyl)-10-(hydroxymethyl)-9-(4-(pyridin-3-ylethynyl)phenyl)-1,6-diazabicyclo[6.2.0] decane-6-carboxamide]	0.368
COc1ccc(C#Cc2ccc([C@@H]3[C@H](CO)N4CCCCN(C(=O)Nc5ccccc5F)C[C@@H]34)cc2)cc1 [Compound 29, (8R,9S,10R)-N-(2-fluorophenyl)-10-(hydroxymethyl)-9-(4-((4-methoxyphenyl)ethynyl)phenyl)-1,6-diazabicyclo[6.2.0] decane-6-carboxamide]	0.898
O=C(Nc1ccccc1)N1CCCCN2[C@H](CO)[C@H](c3ccc(C#Cc4ccccc4)cc3)[C@@H]2C1 [Compound 30, (8R,9R,10S)-10-(hydroxymethyl)-N-phenyl-9-(4-(phenylethynyl)phenyl)-1,6-diazabicyclo[6.2.0] decane-6-carboxamide]	0.042
COc1ccc(NC(=O)N2CCCCN3[C@H](CO)C(c4ccccc4)[C@@H]3C2)cc1 (stereo partly drawn) [Compound 31, (8R,10S)-10-(hydroxymethyl)-N-(4-methoxyphenyl)-9-phenyl-1,6-diazabicyclo[6.2.0] decane-6-carboxamide]	1.82
COc1ccc(NC(=O)N2CCCCN3[C@H](CN4CCN(C)CC4)[C@H](c4ccc(C#Cc5ccccc5)cc4)[C@@H]3C2)cc1 [Compound 32, (8R,9S,10S)-N-(4-methoxyphenyl)-10-[(4-methylpiperazin-1-yl)methyl]-9-[4-(2-phenylethynyl)phenyl]-1,6-diazabicyclo[6.2.0] decane-6-carboxamide]	0.158
COc1ccc(NC(=O)N2CCCCN3[C@H](CN4CCC(C)(O)CC4)[C@H](c4ccc(C#Cc5ccccc5)cc4)[C@@H]3C2)cc1 [Compound 33, (8R,9S,10S)-10-[(4-hydroxy-4-methylpiperidin-1-yl)methyl]-N-(4-methoxyphenyl)-9-[4-(2-phenylethynyl)phenyl]-1,6-diazabicyclo[6.2.0] decane-6-carboxamide]	2.32
COc1ccc(NC(=O)N2CCN3[C@H](CO)[C@H](c4ccc(C#Cc5ccccc5)cc4)[C@@H]3C2)cc1 [Compound 34, (6R,7R,8S)-8-(hydroxymethyl)-N-(4-methoxyphenyl)-7-[4-(2-phenylethynyl)phenyl]-1,4-diazabicyclo[4.2.0] octane-4-carboxamide]	4.66
COc1ccc(NC(=O)N2CCCCN3[C@H](COCC(=O)O)[C@H](c4ccc(C#Cc5ccccc5)cc4)[C@@H]3C2)cc1 [Compound 35, 2-{[(8R,9R,10S)-6-[(4-methoxyphenyl)carbamoyl]-9-[4-(2-phenylethynyl)phenyl]-1,6-diazabicyclo[6.2.0]decan-10-yl]methoxy}acetic acid]	0.065
COc1ccc(C(=O)N2CCCCN3[C@H](CO)[C@H](c4ccc(C#Cc5ccccc5)cc4)[C@@H]3C2)cc1 [Compound 36, [(8R,9R,10S)-6-(4-methoxybenzoyl)-9-[4-(2-phenylethynyl)phenyl]-1,6-diazabicyclo[6.2.0]decan-10-yl]methanol]	7.9
COc1ccc(NC(=O)N2CCCCN3[C@H](CO)[C@H](c4ccc(C#Cc5cccc(F)c5)cc4)[C@@H]3C2)cc1 [Compound 38, (8R,9R,10S)-9-{4-[2-(3-fluorophenyl)ethynyl]phenyl}-10-(hydroxymethyl)-N-(4-methoxyphenyl)-1,6-diazabicyclo[6.2.0] decane-6-carboxamide]	0.015
COc1ccc(NC(=O)N2CCCCN3[C@H](CO)[C@H](c4ccc(-c5csc(-c6ccccc6)n5)cc4)[C@@H]3C2)cc1 [Compound 39, (8R,9R,10S)-10-(hydroxymethyl)-N-(4-methoxyphenyl)-9-[4-(2-phenyl-1,3-thiazol-4-yl)phenyl]-1,6-diazabicyclo[6.2.0] decane-6-carboxamide]	5.17
COc1ccc(S(=O)(=O)N2CCCCN3[C@H](CO)[C@H](c4ccc(C#Cc5ccccc5)cc4)[C@@H]3C2)cc1 [Compound 40, [(8R,9R,10S)-6-(4-methoxybenzene-sulfonyl)-9-[4-(2-phenylethynyl)phenyl]-1,6-diazabicyclo[6.2.0]decan-10-yl]methanol]	5.16
COc1ccc(NC(=O)N2CCCCN3[C@H](CO)[C@H](c4ccc(-c5ccccc5)cc4)[C@@H]3C2)cc1 [Compound 41, (8R,9R,10S)-10-(hydroxymethyl)-N-(4-methoxyphenyl)-9-(4-phenylphenyl)-1,6-diazabicyclo[6.2.0] decane-6-carboxamide]	9.83
COc1ccc(NC(=O)N2CCCCN3[C@H](CO)[C@H](c4ccc(-c5ccc(F)cc5)cc4)[C@@H]3C2)cc1 [Compound 42, (8R,9R,10S)-9-[4-(4-fluorophenyl)phenyl]-10-(hydroxymethyl)-N-(4-methoxyphenyl)-1,6-diazabicyclo[6.2.0] decane-6-carboxamide]	9.68
COc1ccc(NC(=O)N2CCCCN3C[C@H](c4ccc(C#Cc5ccccn5)cc4)[C@@H]3C2)cc1 [Compound 43, (8R,9S)-N-(4-methoxyphenyl)-9-{4-[2-(pyridin-2-yl)ethynyl]phenyl}-1,6-diazabicyclo[6.2.0] decane-6-carboxamide]	0.229
O=C(NC1CCCCC1)N1CCCCN2[C@H](CO)[C@H](c3ccc(C#Cc4ccccc4)cc3)[C@@H]2C1 [Compound 44, (8R,9R,10S)-N-cyclohexyl-10-(hydroxymethyl)-9-[4-(2-phenylethynyl)phenyl]-1,6-diazabicyclo[6.2.0] decane-6-carboxamide]	1.1
COc1ccc(NC(=O)N2CCCCN3[C@H](CO)[C@H](c4ccc(C#CC5CCCCC5)cc4)[C@@H]3C2)cc1 [Compound 45, (8R,9R,10S)-9-[4-(2-cyclohexylethynyl)phenyl]-10-(hydroxymethyl)-N-(4-methoxyphenyl)-1,6-diazabicyclo[6.2.0] decane-6-carboxamide]	0.846
COc1ccc(NC(=O)N2CCCCN3[C@H](CO)[C@H](c4ccc(-c5ccccc5F)cc4)[C@@H]3C2)cc1 [Compound 46, (8R,9R,10S)-9-[4-(2-fluorophenyl)phenyl]-10-(hydroxymethyl)-N-(4-methoxyphenyl)-1,6-diazabicyclo[6.2.0] decane-6-carboxamide]	17.8
COc1ccc(NC(=O)N2C/C=C\CN3[C@H](CO)[C@H](c4ccc(C#Cc5ccccc5)cc4)[C@@H]3C2)cc1 [Compound 47, (8R,9R,10S)-10-(hydroxymethyl)-N-(4-methoxyphenyl)-9-[4-(2-phenylethynyl)phenyl]-1,6-diazabicyclo[6.2.0]dec-3-ene-6-carboxamide]	0.023
COc1ccc(NC(=O)N2CCCCN3[C@@H](CN)[C@H](c4ccc(C#Cc5ccccc5)cc4)[C@@H]3C2)cc1 [Compound 48, (8R,9S,10R)-10-(aminomethyl)-N-(4-methoxyphenyl)-9-[4-(2-phenylethynyl)phenyl]-1,6-diazabicyclo[6.2.0] decane-6-carboxamide]	0.036
O=C(Nc1ccccc1F)N1CCCCN2[C@H](CO)[C@H](c3ccc(C#Cc4ccccc4)cc3)[C@@H]2C1 [Compound 49, (8R,9R,10S)-N-(2-fluorophenyl)-10-(hydroxymethyl)-9-[4-(2-phenylethynyl)phenyl]-1,6-diazabicyclo[6.2.0] decane-6-carboxamide]	0.065
O=C(Nc1ccncc1)N1CCCCN2[C@H](CO)[C@H](c3ccc(C#Cc4ccccc4)cc3)[C@@H]2C1 [Compound 50, (8R,9R,10S)-10-(hydroxymethyl)-9-[4-(2-phenylethynyl)phenyl]-N-(pyridin-4-yl)-1,6-diazabicyclo[6.2.0] decane-6-carboxamide]	1.23
COc1ccc(NC(=O)N2CCCCN3[C@H](CO)[C@H](c4ccc(C#Cc5ccc(F)cc5)cc4)[C@@H]3C2)cc1 [Compound 51, (8R,9R,10S)-9-{4-[2-(4-fluorophenyl)ethynyl]phenyl}-10-(hydroxymethyl)-N-(4-methoxyphenyl)-1,6-diazabicyclo[6.2.0] decane-6-carboxamide]	0.011
